Measured values taken from patent publication US9499550B2 (BRISTOL-MYERS SQUIBB COMPANY, priority 2012, dated 2016).
Where two headings read alike, the source gives them in different places.

Legend:
[1] = tested on: HCV genotype 1b (Con1) replicon in HUH-7 cells; test: HCV replicon luciferase reporter assay, genotype 1b; type: cell-based; conditions: Hepatitis C virus, Huh-7, 72 h, 3 days incubation
Summary of the method: (§1)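 Replicon inhibition for both genotypes was measured as Renilla luciferase signal (EnduRen, 7.5 μM final, 2 h) after 3-day, 37° C exposure of replicon-bearing HUH-7 cells in 4% FCS DMEM, 0.5% DMSO. The 1b construct carries S1179I; the 1a H77 construct carries P1496L and S2204I. Twenty-point, 3-fold dilutions were fitted four-parametrically for EC50, and CC50 was taken from multiplexed Cell Titer-Blue.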

[2] = tested on: HCV genotype 1a (H77 strain) replicon in HUH-7 cells; test: HCV replicon luciferase reporter assay, genotype 1a; type: cell-based; conditions: Hepatitis C virus, Huh-7, 72 h, 3 days incubation
Summary of the method: as §1

[3] = HCV genotype 1b replicon luciferase, read-out: LE_1b (EC50, range)
[4] = HCV genotype 1a replicon luciferase, read-out: LE_1a (EC50, range)
[5] = HCV genotype 1b replicon luciferase assay, range class, read-out: LE_1b (EC50, range)
[6] = HCV genotype 1a replicon luciferase assay, range class, read-out: LE_1a (EC50, range)
[7] = GETYPE1B, HCV genotype 1b replicon luciferase, read-out: LE_1b (EC50, range)
[8] = GETYPE1A, HCV genotype 1a replicon luciferase, read-out: LE_1a (EC50, range)

## CCn1nc(O[C@@H]2C[C@H]3C(=O)N[C@]4(C(=O)NS(=O)(=O)C5(C)CC5)C[C@H]4/C=C\CC[C@H](C)C[C@@H](C)[C@H](NC(=O)C(=O)N(C)C)C(=O)N3C2)c2ccccc2c1=O [Compound 5062, N1-((2R,6S,7R,9S,13aS,14aR,16aS,Z)-2-((3-ethyl-4-oxo-3,4-dihydrophthalazin-1-yl)oxy)-7,9-dimethyl-14a-(((1-methylcyclopropyl)sulfonyl)carbamoyl)-5,16-dioxo-1,2,3,5,6,7,8,9,10,11,13a,14,14a,15,16,16a-hexadecahydrocyclopropa[e]pyrrolo[1,2-a][1,4]diazacyclopentadecin-6-yl)-N2,N2-dimethyloxalamide]
[1]; HCV genotype 1b replicon luciferase, read-out: LE_1b (EC50)
  EC50: 1000 nM
[1]; [3]
  EC50: > 87.4 nM
[2]; HCV genotype 1a replicon luciferase, read-out: LE_1a (EC50)
  EC50: ≥ 1000 nM
[2]; [4]
  EC50: > 87.4 nM

## [2H]C([2H])([2H])C(OC(=O)N[C@@H]1C(=O)N2C[C@H](Oc3nc(N4CCOCC4)cc4cc(OC)ccc34)C[C@H]2C(=O)N[C@]2(C(=O)NS(=O)(=O)C3CC3)C[C@H]2/C=C\CC[C@@H](C)C[C@H]1C)(C([2H])([2H])[2H])C(F)(F)F [Compound 3101, 1,1,1,3,3,3-hexadeutero-2-(trifluoromethyl)propan-2-yl((2R,6S,7R,9R,13aS,14aR,16aS,Z)-14a-((cyclopropylsulfonyl)carbamoyl)-2-((6-methoxy-3-morpholinoisoquinolin-1-yl)oxy)-7,9-dimethyl-5,16-dioxo-1,2,3,5,6,7,8,9,10,11,13a,14,14a,15,16,16a-hexadecahydrocyclopropa[e]pyrrolo[1,2-a][1,4]diazacyclopentadecin-6-yl)carbamate]
[1]; [5]
  EC50: < 5.46 nM
[2]; [6]
  EC50: < 5.46 nM

## COc1ccc2c(O[C@@H]3C[C@H]4C(=O)N[C@]5(C(=O)NS(=O)(=O)C6(C)CC6)C[C@H]5/C=C\CC[C@@H](C)C[C@@H](C)[C@H](NC(=O)OC(C)(C)C(F)(F)F)C(=O)N4C3)nc(-c3ccc(OC(C)C)cc3)nc2c1 [Compound 3012, 1,1,1-trifluoro-2-methylpropan-2-yl((2R,6S,7R,9R,13aS,14aR,16aS,Z)-2-((2-(4-isopropoxyphenyl)-7-methoxyquinazolin-4-yl)oxy)-7,9-dimethyl-14a-(((1-methylcyclopropyl)sulfonyl)carbamoyl)-5,16-dioxo-1,2,3,5,6,7,8,9,10,11,13a,14,14a,15,16,16a-hexadecahydrocyclopropa[e]pyrrolo[1,2-a][1,4]diazacyclopentadecin-6-yl)carbamate]
[1]; [5]
  EC50: < 5.46 nM
[2]; [6]
  EC50: < 5.46 nM

## COc1ccc2c(O[C@@H]3C[C@H]4C(=O)N[C@]5(C(=O)NS(=O)(=O)C6(C)CC6)C[C@H]5/C=C\CC[C@H](C)C[C@@H](C)[C@H](NC(=O)OC(C)(C)C)C(=O)N4C3)nc(N3CCOCC3)cc2c1 [Compound 3088, tert-butyl ((2R,6S,7R,9S,13aS,14aR,16aS,Z)-2-((6-methoxy-3-morpholinoisoquinolin-1-yl)oxy)-7,9-dimethyl-14a-(((1-methylcyclopropyl)sulfonyl)carbamoyl)-5,16-dioxo-1,2,3,5,6,7,8,9,10,11,13a,14,14a,15,16,16a-hexadecahydrocyclopropa[e]pyrrolo[1,2-a][1,4]diazacyclopentadecin-6-yl)carbamate]
[1]; [5]
  EC50: < 5.46 nM
[2]; [6]
  EC50: < 5.46 nM

## COc1ccc2c(O[C@@H]3C[C@H]4C(=O)N[C@]5(C(=O)NS(=O)(=O)C6(C)CC6)C[C@H]5/C=C\CC[C@@H](C)C[C@@H](C)[C@H](NC(=O)OC(C)(C)C)C(=O)N4C3)ncc(N3CCN(CC(F)F)CC3)c2c1 [Compound 4173]
[1]; [7]
  EC50: < 5.46 nM
[2]; [8]
  EC50: < 5.46 nM

## CC[C@@H]1C[C@H](C)CC/C=C\[C@@H]2C[C@@]2(C(=O)NS(=O)(=O)C2(CF)CC2)NC(=O)[C@@H]2C[C@@H](Oc3nccc4cc(OC)ccc34)CN2C(=O)[C@H]1NC(=O)OC(C)(C)C(F)(F)F [Compound 4205]
[1]; [7]
  EC50: < 5.46 nM
[2]; [8]
  EC50: < 5.46 nM

## COc1cnc(O[C@@H]2C[C@H]3C(=O)N[C@]4(C(=O)NS(=O)(=O)C5(CF)CC5)C[C@H]4/C=C\CC[C@H](C)C[C@@H](C)[C@H](NC(=O)OC(C)(C)C)C(=O)N3C2)c2ccc(N(C)C)cc12 [Compound 3141, tert-butyl ((2R,6S,7R,9S,13aS,14aR,16aS,Z)-2-((6-(dimethylamino)-4-methoxyisoquinolin-1-yl)oxy)-14a-(((1-(fluoromethyl)cyclopropyl)sulfonyl)carbamoyl)-7,9-dimethyl-5,16-dioxo-1,2,3,5,6,7,8,9,10,11,13a,14,14a,15,16,16a-hexadecahydrocyclopropa[e]pyrrolo[1,2-a][1,4]diazacyclopentadecin-6-yl)carbamate]
[1]; [5]
  EC50: < 5.46 nM
[2]; [6]
  EC50: < 5.46 nM

## CC[C@@H]1C[C@H](C)CC/C=C\[C@@H]2C[C@@]2(C(=O)NS(=O)(=O)C2(C)CC2)NC(=O)[C@@H]2C[C@@H](Oc3ncc(N(CC)CC)c4cc(OC)ccc34)CN2C(=O)[C@H]1NC(=O)OC(C)(C)C(F)(F)F [Compound 4269]
[1]; [7]
  EC50: 1.01 to 5 nM
[2]; [8]
  EC50: 1.01 to 5 nM

## C[C@@H]1CC/C=C\[C@@H]2C[C@@]2(C(=O)NS(=O)(=O)C2(CF)CC2)NC(=O)[C@@H]2C[C@@H](Oc3nccc4c5c(ccc34)OCCO5)CN2C(=O)[C@@H](NC(=O)OC(C)(C)C(F)(F)F)[C@H](C)C1 [Compound 5323, 1,1,1-trifluoro-2-methylpropan-2-yl((2R,6S,7R,9R,13aS,14aR,16aS,Z)-2-((2,3-dihydro-[1,4]dioxino[2,3-f]isoquinolin-7-yl)oxy)-14a-(((1-(fluoromethyl)cyclopropyl)sulfonyl)carbamoyl)-7,9-dimethyl-5,16-dioxo-1,2,3,5,6,7,8,9,10,11,13a,14,14a,15,16,16a-hexadecahydrocyclopropa[e]pyrrolo[1,2-a][1,4]diazacyclopentadecin-6-yl)carbamate]
[1]; [3]
  EC50: < 5.46 nM
[2]; [4]
  EC50: < 5.46 nM

## COc1ccc2c(O[C@@H]3C[C@H]4C(=O)N[C@]5(C(=O)NS(=O)(=O)C6CC6)C[C@H]5/C=C\CC[C@@H](C)C[C@@H](C)[C@H](NC(=O)OC(C)(C)C(F)(F)F)C(=O)N4C3)nccc2c1 [Compound 7, 1,1,1-trifluoro-2-methylpropan-2-yl((2R,6S,7R,9R,13aS,14aR,16aS,Z)-14a-((cyclopropylsulfonyl)carbamoyl)-2-((6-methoxyisoquinolin-1-yl)oxy)-7,9-dimethyl-5,16-dioxo-1,2,3,5,6,7,8,9,10,11,13a,14,14a,15,16,16a-hexadecahydrocyclopropa[e]pyrrolo[1,2-a][1,4]diazacyclopentadecin-6-yl)carbamate]
[1]; [5]
  EC50: < 5.46 nM
[2]; [6]
  EC50: < 5.46 nM

## COc1cc(O[C@@H]2C[C@H]3C(=O)N[C@]4(C(=O)NS(=O)(=O)C5(C)CC5)C[C@H]4/C=C\CC[C@@H](C)C[C@@H](C)[C@H](NC(=O)OC(C)(C)C(F)(F)F)C(=O)N3C2)c2cc(F)c(OC)cc2n1 [Compound 1203]
[1]; [7]
  EC50: 0.1 to 0.5 nM
[2]; [8]
  EC50: 1.01 to 5 nM

## CC[C@@H]1C[C@H](C)CC/C=C\[C@@H]2C[C@@]2(C(=O)NS(=O)(=O)C2(C)CC2)NC(=O)[C@@H]2C[C@@H](Oc3nc(-c4ccc(OC(C)C)cn4)cc4cc(OC)ccc34)CN2C(=O)[C@H]1NC(=O)OC(C)(C)C(C)(F)F [Compound 5487, 3,3-difluoro-2-methylbutan-2-yl((2R,6S,7R,9R,13aS,14aR,16aS,Z)-7-ethyl-2-((3-(5-isopropoxypyridin-2-yl)-6-methoxyisoquinolin-1-yl)oxy)-9-methyl-14a-(((1-methylcyclopropyl)sulfonyl)carbamoyl)-5,16-dioxo-1,2,3,5,6,7,8,9,10,11,13a,14,14a,15,16,16a-hexadecahydrocyclopropa[e]pyrrolo[1,2-a][1,4]diazacyclopentadecin-6-yl)carbamate]
[1]; [3]
  EC50: 1.01 to 5 nM
[2]; [4]
  EC50: 1.01 to 5 nM

## [2H]C([2H])([2H])Oc1cnc(O[C@@H]2C[C@H]3C(=O)N[C@]4(C(=O)NS(=O)(=O)C5(C)CC5)C[C@H]4/C=C\CC[C@@H](C)C[C@@H](C)[C@H](NC(=O)OC(C([2H])([2H])[2H])(C([2H])([2H])[2H])C(F)(F)F)C(=O)N3C2)c2ccccc12 [Compound 5105, 1,1,1,3,3,3-hexadeutero-2-(trifluoromethyl)propan-2-yl((2R,6S,7R,9R,13aS,14aR,16aS,Z)-7,9-dimethyl-14a-(((1-methylcyclopropyl)sulfonyl)carbamoyl)-5,16-dioxo-2-((4-(trideuteromethoxy)isoquinolin-1-yl)oxy)-1,2,3,5,6,7,8,9,10,11,13a,14,14a,15,16,16a-hexadecahydrocyclopropa[e]pyrrolo[1,2-a][1,4]diazacyclopentadecin-6-yl)carbamate]
[1]; [3]
  EC50: < 5.46 nM
[2]; [4]
  EC50: < 5.46 nM

## COc1cnc(O[C@@H]2C[C@H]3C(=O)N[C@]4(C(=O)NS(=O)(=O)C5CC5)C[C@H]4/C=C\CC[C@@H](C)C[C@@H](C)[C@H](NC(=O)OC(C)(C)C)C(=O)N3C2)c2cc(Cl)ccc12 [Compound 1161, tert-butyl ((2R,6S,7R,9R,13aS,14aR,16aS,Z)-2-((7-chloro-4-methoxyisoquinolin-1-yl)oxy)-14a-((cyclopropylsulfonyl)carbamoyl)-7,9-dimethyl-5,16-dioxo-1,2,3,5,6,7,8,9,10,11,13a,14,14a,15,16,16a-hexadecahydrocyclopropa[e]pyrrolo[1,2-a][1,4]diazacyclopentadecin-6-yl)carbamate]
[1]; [5]
  EC50: < 5.46 nM
[2]; [6]
  EC50: < 5.46 nM
